Assay results: patent US9029332B2, “Cross-linked peptides and proteins, methods of making same, and uses thereof” (The Research Foundation for The State University of New York, priority 2010, dated 2015)
Each block holds one molecule with its values, some of them ahead of it. Numbered stars: 1 amine (or outer) side, 2 acyl side, 3 side chain; on linkers, the order of the positions; unused ones are H or OH. Bridge positions count the residues as written; N and C are the ends. Square brackets hold non-standard residues; d marks the D form. Ends that are not written are not given here. Peptide text beside a SMILES is read from it. BMA = bismethylene aryl moiety linked through two thioether bonds; CH2(3,3'-bipyridine-6,6')CH2 = c1cc(C[*:1])ncc1-c1ccc(C[*:2])nc1; Biphenyl(4,4'-CH2)2 = c1cc(-c2ccc(C[*:2])cc2)ccc1C[*:1]

Assays:
GST-Bcl-xL = GST-Bcl-xL (Homo sapiens, UniProt Q07817); assay: FP binding affinity of fluorescein-labeled peptides, Bcl-xL
HeLa cells [1] = assay: FACS analysis of cell permeability of fluorescein-conjugated peptides; assay type: cell-based; settings: 10 μM fluorescein-conjugated peptide, 2 h
Procedure: FACS Analysis. HeLa Cells were cultured in DMEM medium supplemented with 10% fetal bovine serum in 6-well plate in a 37° C., 5% CO2 incubator to reach confluency of around 70%. The cells were then washed twice with PBS before switching to serum-free DMEM medium. After standing in the incubator for 30 minutes, appropriate amounts of peptides (1 mM in DMSO) were added to the culture plate to obtain a final peptide concentration of 10 μM. Cells were incubated at 37° C. for additional 2 hrs. Then the medium was removed and the cells were washed with PBS (3×) followed by treatment with trypsin to detach the cells. After a brief low-speed centrifugation, the HeLa cells were collected and re-suspended in PBS for the FACS analysis.

HeLa cells [2] = assay: Cell viability assay (CellTiter-Glo, ATP) and DIC imaging, cytotoxicity; assay type: cell-based; settings: 10 μM, 2 hours; DIC channel and ATP assay
Procedure: FIG. 8. (a) Confocal images of fixed HeLa cells after treatment with 10 μM of fluorescein-conjugated peptides for 2 hours. Scale bar=50 μm. (b) Cell viability assay using the CellTiter-Glo reagent.
Cell Viability Assay. HeLa cells were seeded into an opaque 96-well plate at a density of 1×10^4 per well in 100 μL DMEM medium supplemented with 10% FBS and the cells were allowed to grow in a 37° C. 5% CO2 incubator for 48 hrs to reach confluency of around 80%. Prior to the compound treatment, the medium was replaced with serum-free medium and the cells were incubated for 30 minutes. Appropriate amounts of peptides (1 mM in DMSO) were then added to obtain a final concentration of 10 μM and the cells were incubated at 37° C. for 2 hours. Afterwards, the plate was allowed to stand at room temperature for 30 minutes before 100 μL of Cell-Titer Glow reagent (Promega) was added. The plate was incubated at room temperature for 10 minutes. The luminescence signals were recorded with an FLX 800 luminescence plate reader (BioTek). The plotted data represented the average of the readings from 4 separate wells.

[3] = molecular target: T1, full-length human MDMX (GST-MDMX) (Homo sapiens, UniProt O15151); assay: ELISA, inhibition of p53-MDMX interaction; assay type: binding; settings: relative to linear counterpart 3
T1 construct: GST-MDM2 and GST-MDMX containing full-length human MDM2 and MDMX; made in house; host or cells: Escherichia coli
T1 sequence (O15151 1-490): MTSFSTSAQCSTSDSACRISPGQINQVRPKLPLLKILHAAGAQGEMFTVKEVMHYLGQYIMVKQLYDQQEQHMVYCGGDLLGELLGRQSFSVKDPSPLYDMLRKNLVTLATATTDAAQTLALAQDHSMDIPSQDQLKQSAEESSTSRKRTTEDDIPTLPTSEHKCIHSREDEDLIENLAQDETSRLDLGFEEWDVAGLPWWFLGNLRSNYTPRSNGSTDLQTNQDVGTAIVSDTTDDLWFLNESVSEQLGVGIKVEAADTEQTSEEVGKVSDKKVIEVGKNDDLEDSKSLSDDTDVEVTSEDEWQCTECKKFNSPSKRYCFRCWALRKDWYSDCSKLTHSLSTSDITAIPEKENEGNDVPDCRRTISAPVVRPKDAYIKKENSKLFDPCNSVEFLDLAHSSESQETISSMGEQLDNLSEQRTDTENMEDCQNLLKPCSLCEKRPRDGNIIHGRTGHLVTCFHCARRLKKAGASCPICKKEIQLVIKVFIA
Text: FIG. 10. ELISA data of the cross-linked PDI analogs. The experiments were repeated three times and the resulting data were plotted with GraphPad Prism 5.0 to derive the average IC50 values along with standard deviations.
ELISA Assay. GST-MDM2 and GST-MDMX containing full-length human MDM2 and MDMX and His6-tagged human p53 were expressed in Escherichia coli and purified by glutathione agarose and Ni^2+-nitrilotriacetic acid beads, respectively, under non-denaturing conditions. Microtiter plates were coated with 2.5 μg/ml His6-p53 in PBS buffer for 16 hours. After washing with PBS containing 0.1% Tween-20 (PBST), the plates were blocked with PBST containing 5% nonfat dry milk (PBSTM) for 30 minutes. Peptides were dissolved in DMSO. GST-MDM2 and MDMX (5 μg/ml) were mixed with peptides in PBSMT containing 10% glycerol and 10 mM dithiolthreitol prior to their additions to the wells at the specified concentrations. The incubation was allowed to proceed for 1 hour at room temperature before the plates were washed with PBST. […] The plates were developed by incubation with TMB peroxidase substrate (KPL, Gaithersburg, Md.) and measured by absorbance at 450 nm. The data was analyzed with the Origin 6.0 software. […]

[4] = Circular dichroism, percent helicity; assay type: physicochemical; settings: compared to the linear NoxaBH3 peptide, 50 μM in 20% ACN/H2O
Procedure: FIG. 12. […] The peptides were dissolved in 20% ACN/H2O for a final concentration of 50 μM.
Circular Dichroism Study. […] The spectra were recorded in the wavelength range of 190-250 nm and averaged over 3 scans with a resolution of 0.5 nm, a bandwidth of 1.0 nm and a response time of 4 s. The sensitivity and the speed of the spectrometer were set to 100 mdeg and 50 nm/min, respectively. All peptides were dissolved in 20% acetonitrile/H2O to reach final concentration of 50 μM.

Mcl-1 [5] = molecular target: Mcl-1 (Homo sapiens, UniProt Q07820); assay: ELISA of cross-linked Noxa peptides; assay type: binding
GST-Mcl-1 = GST-Mcl-1 (Homo sapiens, UniProt Q07820); assay: Competitive fluorescence polarization assay; assay type: binding; settings: for IC50: Noxa peptides, three repeats ± SD, read-out: FP, IC50
Procedure: Competitive Florescence Polarization Assay. The binding affinity of the Noxa peptides toward GST-Mcl-1 was determined in a competitive fluorescence polarization assay with the fluorescein-labeled Bak or Bim. Briefly, fluorescein-labeled Bak was incubated with GST-Mcl-1 in a binding buffer (PBS, 0.005% Tween-20, pH7.4) at room temperature in a 96-well microtiter plate. […] The reading was repeated at various time points to ensure that the competition has reached equilibrium.

chymotrypsin = chymotrypsin (Bos taurus, UniProt P00766); assay: Chymotrypsin proteolytic stability assay; settings: cattle (bovine), chymotrypsin (Type II, Sigma) in NH4HCO3 buffer, pH 8
Procedure: Proteolytic stability of the linear and stapled Noxa peptides against trypsin (Type IX-S, 13,000-20,000 unit/mg, Sigma) and chymotrypsin (Type II, 40 unit/mg, Sigma). To a solution of 400 μL of 0.25 mM peptide in NH4HCO3 buffer, pH 8.0, was added 80 μL trypsin (5 μg/mL) or chymotrypsin (25 μg/mL), and the resulting solution was incubated at 37° C. At the indicated times, 40 μL of the solution was transferred to 40 μL trifluoroacetic acid to quench the reaction. The samples were analyzed by reverse-phase HPLC using benzophenone as an injection control.

Mcl-1 [6] = molecular target: Mcl-1 (Mus musculus, UniProt P97287); settings: background literature; read-out: IC50 against Mcl-1; cited from earlier work
Sequence of Mcl-1 (Mus musculus, UniProt P97287) (P97287 152-308 limits assumed): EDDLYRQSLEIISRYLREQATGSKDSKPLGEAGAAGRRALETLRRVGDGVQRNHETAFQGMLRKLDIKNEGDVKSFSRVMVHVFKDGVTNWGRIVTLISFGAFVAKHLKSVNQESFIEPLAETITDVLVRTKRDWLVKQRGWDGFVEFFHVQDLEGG

Sequence of GST-Mcl-1 (Q07820 whole entry): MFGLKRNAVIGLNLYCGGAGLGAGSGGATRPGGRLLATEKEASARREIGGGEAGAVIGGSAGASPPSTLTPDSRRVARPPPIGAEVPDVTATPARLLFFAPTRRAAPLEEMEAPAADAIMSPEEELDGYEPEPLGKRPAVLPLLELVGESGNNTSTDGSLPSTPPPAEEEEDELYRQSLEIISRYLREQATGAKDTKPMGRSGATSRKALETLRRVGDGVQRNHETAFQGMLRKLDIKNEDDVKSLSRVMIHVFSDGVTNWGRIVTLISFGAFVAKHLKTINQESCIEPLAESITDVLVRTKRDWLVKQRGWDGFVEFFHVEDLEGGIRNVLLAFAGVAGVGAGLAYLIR
Sequence of Mcl-1 (Homo sapiens, UniProt Q07820) (Q07820 whole entry, species assumed): as the sequence (Q07820 whole entry) above
Sequence of GST-Bcl-xL (Q07817 whole entry): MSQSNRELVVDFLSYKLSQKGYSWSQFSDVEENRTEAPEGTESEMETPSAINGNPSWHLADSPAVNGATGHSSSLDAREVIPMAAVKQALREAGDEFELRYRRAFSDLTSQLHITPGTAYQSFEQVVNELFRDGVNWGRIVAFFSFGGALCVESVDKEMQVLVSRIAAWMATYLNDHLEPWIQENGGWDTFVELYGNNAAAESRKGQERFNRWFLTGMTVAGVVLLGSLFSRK

Molecule: CC[C@H](C)[C@H](NC(=O)[C@H](CCCNC(=N)N)NC(=O)[C@H](CCCNC(=N)N)NC(=O)[C@H](CC(C)C)NC(=O)[C@H](CCC(N)=O)NC(=O)[C@H](C)NC(=O)[C@H](C)NC(=O)CCCCCNC(=S)Nc1ccc2c(c1)C(=O)OC21c2ccc(O)cc2Oc2cc(O)ccc21)C(=O)NCC(=O)N[C@@H](CC(=O)O)C(=O)N[C@@H](CCCCN)C(=O)N[C@H](C(=O)N[C@@H](CC(N)=O)C(=O)N[C@@H](CC(C)C)C(=O)N[C@@H](CCCNC(=N)N)C(=O)N[C@@H](CCC(N)=O)C(=O)N[C@@H](CCCCN)C(=O)N[C@@H](CC(C)C)C(=O)N[C@@H](CC(C)C)C(=O)N[C@@H](CC(N)=O)C(N)=O)C(C)C [Fl-NoxaB^75-93-C75A]
- Kd (GST-Bcl-xL): > 2000 nM

Molecule: CC(=O)N[C@@H](CC(C)C)C(=O)N[C@H](C(=O)N[C@@H](Cc1ccccc1)C(=O)N[C@@H](CS)C(=O)N[C@@H](Cc1c[nH]cn1)C(=O)N[C@@H](Cc1ccc(O)cc1)C(=O)N[C@@H](Cc1c[nH]c2ccccc12)C(=O)N[C@@H](C)C(=O)N[C@@H](CCC(N)=O)C(=O)N[C@@H](CC(C)C)C(=O)N[C@@H](CS)C(=O)N[C@@H](CO)C(N)=O)[C@@H](C)O [Peptide 1] (Ac-LTFCHYWAQLCS-NH2)
- cell penetration (HeLa cells [1]; relative to DMSO control): minimal cell penetration

Molecule: CC(=O)N[C@@H](CC(C)C)C(=O)N[C@H](C(=O)N[C@@H](Cc1ccccc1)C(=O)N[C@H]1CSCc2ccc(cn2)-c2ccc(nc2)CSC[C@@H](C(=O)N[C@@H](CO)C(N)=O)NC(=O)[C@H](CC(C)C)NC(=O)[C@H](CCC(N)=O)NC(=O)[C@H](C)NC(=O)[C@H](Cc2c[nH]c3ccccc23)NC(=O)[C@H](Cc2ccc(O)cc2)NC(=O)[C@H](Cc2c[nH]cn2)NC1=O)[C@@H](C)O [Peptide 1b, LTFC″HYWAQLC″S] (Ac-LTFCHYWAQLCS-NH2; linker 4-11 via CH2(3,3'-bipyridine-6,6')CH2; C-terminus assumed)
- increase in mean fluorescence by Bpy cross-linking (HeLa cells [1]; over linear counterpart): ~6 fold
- cytotoxicity (HeLa cells [2]): did not show any cytotoxicity

- increase in MDMX activity [3]: 15 fold
Molecule: CC(=O)N[C@@H](CC(C)C)C(=O)N[C@H](C(=O)N[C@@H](Cc1ccccc1)C(=O)N[C@@H]1CSCc2ccc(cc2)-c2ccc(cc2)CSC[C@@H](C(=O)N[C@@H](CO)C(N)=O)NC(=O)[C@H](CC(C)C)NC(=O)[C@H](CCC(N)=O)NC(=O)[C@H](C)NC(=O)[C@H](Cc2c[nH]c3ccccc23)NC(=O)[C@H](Cc2ccc(O)cc2)NC(=O)[C@H](Cc2c[nH]cn2)NC1=O)[C@@H](C)O [Peptide 3a, LTFc′HYWAQLC′S] (Ac-LTF[dC]HYWAQLCS-NH2; linker 4-11 via Biphenyl(4,4'-CH2)2)

- increase in MDMX activity [3]: 24 fold
Molecule: CC(=O)N[C@@H](CC(C)C)C(=O)N[C@H](C(=O)N[C@@H](Cc1ccccc1)C(=O)N[C@@H]1CSCc2ccc(cn2)-c2ccc(nc2)CSC[C@@H](C(=O)N[C@@H](CO)C(N)=O)NC(=O)[C@H](CC(C)C)NC(=O)[C@H](CCC(N)=O)NC(=O)[C@H](C)NC(=O)[C@H](Cc2c[nH]c3ccccc23)NC(=O)[C@H](Cc2ccc(O)cc2)NC(=O)[C@H](Cc2c[nH]cn2)NC1=O)[C@@H](C)O [Peptide 3b, LTFc″HYWAQLC″S] (Ac-LTF[dC]HYWAQLCS-NH2; linker 4-11 via CH2(3,3'-bipyridine-6,6')CH2)
- cytotoxicity (HeLa cells [2]): did not show any cytotoxicity

- enhancement in percent helicity [4]: roughly 2 fold
- IC50 (Mcl-1 [5]): 75 nM
- IC50 (GST-Mcl-1): 18 ± 6 nM
- increase in activity in FPA (GST-Mcl-1; compared to the parent linear peptide): 67 fold
Molecule: CC[C@H](C)[C@@H]1NC(=O)[C@H](CCCNC(=N)N)NC(=O)[C@H](CCCNC(=N)N)NC(=O)[C@H](CC(C)C)NC(=O)[C@@H](NC(=O)[C@H](C)NC(=O)[C@H](C)NC(C)=O)CSCc2ccc(cc2)-c2ccc(cc2)CSC[C@@H](C(=O)N[C@H](C(=O)N[C@@H](CC(N)=O)C(=O)N[C@@H](CC(C)C)C(=O)N[C@@H](CCCNC(=N)N)C(=O)N[C@@H](CCC(N)=O)C(=O)N[C@@H](CCCCN)C(=O)N[C@@H](CC(C)C)C(=O)N[C@@H](CC(C)C)C(=O)N[C@@H](CC(N)=O)C(N)=O)C(C)C)NC(=O)[C@H](CC(=O)O)NC(=O)CNC1=O [Peptide 5a]

- enhancement in percent helicity [4]: roughly 2 fold
- IC50 (Mcl-1 [5]): 25 nM
- IC50 (GST-Mcl-1): 45 ± 9 nM
- half-life at 0.208 mM (chymotrypsin): 22 min
Molecule: CC[C@H](C)[C@@H]1NC(=O)[C@H](CCCNC(=N)N)NC(=O)[C@H](CCCNC(=N)N)NC(=O)[C@H](CC(C)C)NC(=O)[C@@H](NC(=O)[C@H](C)NC(=O)[C@H](C)NC(C)=O)CSCc2ccc(cn2)-c2ccc(nc2)CSC[C@@H](C(=O)N[C@H](C(=O)N[C@@H](CC(N)=O)C(=O)N[C@@H](CC(C)C)C(=O)N[C@@H](CCCNC(=N)N)C(=O)N[C@@H](CCC(N)=O)C(=O)N[C@@H](CCCCN)C(=O)N[C@@H](CC(C)C)C(=O)N[C@@H](CC(C)C)C(=O)N[C@@H](CC(N)=O)C(N)=O)C(C)C)NC(=O)[C@H](CC(=O)O)NC(=O)CNC1=O [Peptide 5b]

Molecule: LTFCRYWARLCS (LTFCRYWARLCS-NH2; linker 4-11 via BMA (inferred); not fully specified) [Peptide 2, linear arginine-substituted dicysteine PDI analog]
- increase in mean fluorescence / permeability by arginine substitution (HeLa cells [1]; compared to charge-neutral counterpart): 2.5 fold

Molecule: NoxaA-(16-41): BH3 peptide derived from mouse Noxa (RAELPPEFAAQLRKIGDKVYCTWSAP; UniProt Q9JM54 16-41, looked up, fragment)
- IC50 (Mcl-1 [6]): 87 nM

Molecule: NoxaB-(68-93): BH3 peptide derived from mouse Noxa (PADLKDECAQLRRIGDKVNLRQKLLN; UniProt Q9JM54 68-93, looked up, fragment)
- IC50 (Mcl-1 [6]): 109 nM
